The numbers were not newly measured in US8524198B2, “Xylitol dental maintenance system” (priority 2003, dated 2013), which cites them from elsewhere.

SMILES strings stand for the structures.

The conditions of data set [1]: 976 children aged 6-12 years, 2 years; for 2-year DMFS increment: partial substitution of sucrose by xylitol (X group) vs systemic fluoride (F group).
The conditions of data set [2]: 3-year field study; partial substitution of sucrose by xylitol (X group).
The subject of data set [3] is oral microorganisms. To be noted: pure cultures of oral microorganisms in vitro.
For data set [4], the system named is dental plaque. To be noted: dental plaque in vivo.

Turning to `F` [fluoride], in data set [1], the “ratio (RS) between caries incidence and the tooth surface population at risk” value is 5.5; the “2-year DMFS increment” value is recorded as 4.8.

Turning to `OC[C@@H](O)[C@H](O)[C@@H](O)CO` [xylitol], in data set [1], the “ratio (RS) between caries incidence and the tooth surface population at risk” value is on record as 4.5; the “2-year DMFS increment” value was 3.8. The “oral hygiene conditions, final vs base-line” value in data set [2] is recorded as “definite improvement”. The metabolized into acids entry in data set [3] was “not metabolized into acids”. For the same compound, the metabolized into acids result in data set [4] was “not metabolized into acids”.
